Measurements published in PMC6704710, “Preclinical evaluation of 3D185, a novel potent inhibitor of FGFR1/2/3 and CSF-1R, in FGFR-dependent and macrophage-dominant cancer models” (Journal of Experimental & Clinical Cancer Research : CR, 2019).

Tests used:
Assay in all cases: Eurofins kinase panel
Assay type in all cases: biochemical
Conditions in all cases: read-out: Inhibition rate (%)
IR(h) = target: T1, IR(h) (Homo sapiens, UniProt P06213)
T1 construct: purchased Eurofins (KinaseProfiler)

CHK1(h) = target: T2, CHK1(h) (Homo sapiens, UniProt O14757)
T2 construct: purchased Eurofins (KinaseProfiler)
T2 sequence (O14757 1-476): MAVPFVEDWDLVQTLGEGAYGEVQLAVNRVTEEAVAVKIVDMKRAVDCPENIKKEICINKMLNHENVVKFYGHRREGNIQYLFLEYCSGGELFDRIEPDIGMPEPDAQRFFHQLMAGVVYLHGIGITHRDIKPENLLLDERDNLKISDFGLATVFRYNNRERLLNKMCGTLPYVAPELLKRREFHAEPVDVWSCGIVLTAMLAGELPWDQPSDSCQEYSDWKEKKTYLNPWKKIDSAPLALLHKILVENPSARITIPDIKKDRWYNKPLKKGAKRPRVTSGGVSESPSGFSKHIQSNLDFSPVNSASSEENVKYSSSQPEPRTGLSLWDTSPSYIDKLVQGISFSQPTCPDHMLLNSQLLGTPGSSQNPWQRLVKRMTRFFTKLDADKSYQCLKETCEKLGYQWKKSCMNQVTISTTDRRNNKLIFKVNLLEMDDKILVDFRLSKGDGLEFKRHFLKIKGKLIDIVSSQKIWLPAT

NEK7(h) = target: T3, NEK7(h) (Homo sapiens, UniProt Q8TDX7)
T3 construct: purchased Eurofins (KinaseProfiler)
T3 sequence (Q8TDX7 whole entry): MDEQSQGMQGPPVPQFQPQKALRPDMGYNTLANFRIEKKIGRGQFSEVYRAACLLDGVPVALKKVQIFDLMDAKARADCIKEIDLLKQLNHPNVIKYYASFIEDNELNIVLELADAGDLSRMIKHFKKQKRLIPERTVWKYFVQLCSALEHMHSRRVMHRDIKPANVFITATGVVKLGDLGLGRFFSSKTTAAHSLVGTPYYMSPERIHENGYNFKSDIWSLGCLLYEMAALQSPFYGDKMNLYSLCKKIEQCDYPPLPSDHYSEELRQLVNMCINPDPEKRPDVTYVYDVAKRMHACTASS

EphA7(h) = target: T4, EphA7(h) (Homo sapiens, UniProt Q15375)
T4 construct: purchased Eurofins (KinaseProfiler)
T4 sequence (Q15375 28-998): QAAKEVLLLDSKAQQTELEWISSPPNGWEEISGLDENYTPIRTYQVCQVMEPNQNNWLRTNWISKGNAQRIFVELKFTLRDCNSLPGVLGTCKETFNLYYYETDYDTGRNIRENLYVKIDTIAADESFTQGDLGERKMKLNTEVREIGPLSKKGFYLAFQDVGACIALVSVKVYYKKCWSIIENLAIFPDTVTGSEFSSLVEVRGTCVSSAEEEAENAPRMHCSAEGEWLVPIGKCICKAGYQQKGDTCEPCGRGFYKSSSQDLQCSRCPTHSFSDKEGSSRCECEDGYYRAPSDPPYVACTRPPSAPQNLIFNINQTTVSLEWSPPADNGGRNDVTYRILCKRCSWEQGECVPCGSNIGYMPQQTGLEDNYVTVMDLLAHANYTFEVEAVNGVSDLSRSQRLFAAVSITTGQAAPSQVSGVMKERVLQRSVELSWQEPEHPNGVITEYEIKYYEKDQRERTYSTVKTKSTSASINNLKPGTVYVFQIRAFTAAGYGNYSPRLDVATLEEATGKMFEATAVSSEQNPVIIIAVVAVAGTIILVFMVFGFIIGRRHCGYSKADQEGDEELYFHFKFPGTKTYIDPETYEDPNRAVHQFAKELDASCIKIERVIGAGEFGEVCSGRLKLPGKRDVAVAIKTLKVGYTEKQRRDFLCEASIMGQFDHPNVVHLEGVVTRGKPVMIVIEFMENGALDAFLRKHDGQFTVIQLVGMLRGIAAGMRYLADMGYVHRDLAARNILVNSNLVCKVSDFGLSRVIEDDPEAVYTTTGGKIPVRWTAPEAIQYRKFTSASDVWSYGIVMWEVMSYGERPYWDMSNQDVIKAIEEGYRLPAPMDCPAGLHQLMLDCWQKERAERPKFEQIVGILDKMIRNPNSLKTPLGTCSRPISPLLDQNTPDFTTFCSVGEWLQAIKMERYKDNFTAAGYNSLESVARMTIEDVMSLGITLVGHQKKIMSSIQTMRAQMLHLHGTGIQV

MKK6(h) = target: T5, MKK6(h) (Homo sapiens, UniProt P52564)
T5 construct: purchased Eurofins (KinaseProfiler)
T5 sequence (P52564 1-334): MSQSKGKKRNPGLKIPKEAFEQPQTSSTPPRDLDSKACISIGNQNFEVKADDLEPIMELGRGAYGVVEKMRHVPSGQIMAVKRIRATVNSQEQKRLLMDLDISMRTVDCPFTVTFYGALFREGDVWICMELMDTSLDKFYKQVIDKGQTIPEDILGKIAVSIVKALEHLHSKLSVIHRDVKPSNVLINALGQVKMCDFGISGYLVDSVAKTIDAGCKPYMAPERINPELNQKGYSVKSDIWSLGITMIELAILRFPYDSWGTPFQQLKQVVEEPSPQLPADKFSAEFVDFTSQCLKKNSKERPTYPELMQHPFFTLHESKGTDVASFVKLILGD

TRB2(h) = target: T6, TRB2(h) (Homo sapiens, UniProt Q92519)
T6 construct: purchased Eurofins (KinaseProfiler)
T6 sequence (Q92519 1-343): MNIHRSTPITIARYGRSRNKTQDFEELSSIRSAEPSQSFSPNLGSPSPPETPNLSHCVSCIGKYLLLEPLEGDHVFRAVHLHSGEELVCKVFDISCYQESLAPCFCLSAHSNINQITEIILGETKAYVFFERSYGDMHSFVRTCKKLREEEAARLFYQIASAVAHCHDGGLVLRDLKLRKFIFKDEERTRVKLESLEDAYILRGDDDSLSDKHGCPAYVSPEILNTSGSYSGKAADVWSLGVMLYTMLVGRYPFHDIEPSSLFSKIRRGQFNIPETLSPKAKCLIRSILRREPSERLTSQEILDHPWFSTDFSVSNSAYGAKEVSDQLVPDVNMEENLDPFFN

MARK1(h) = target: T7, MARK1(h) (Homo sapiens, UniProt Q9P0L2)
T7 construct: purchased Eurofins (KinaseProfiler)
T7 sequence (Q9P0L2 whole entry): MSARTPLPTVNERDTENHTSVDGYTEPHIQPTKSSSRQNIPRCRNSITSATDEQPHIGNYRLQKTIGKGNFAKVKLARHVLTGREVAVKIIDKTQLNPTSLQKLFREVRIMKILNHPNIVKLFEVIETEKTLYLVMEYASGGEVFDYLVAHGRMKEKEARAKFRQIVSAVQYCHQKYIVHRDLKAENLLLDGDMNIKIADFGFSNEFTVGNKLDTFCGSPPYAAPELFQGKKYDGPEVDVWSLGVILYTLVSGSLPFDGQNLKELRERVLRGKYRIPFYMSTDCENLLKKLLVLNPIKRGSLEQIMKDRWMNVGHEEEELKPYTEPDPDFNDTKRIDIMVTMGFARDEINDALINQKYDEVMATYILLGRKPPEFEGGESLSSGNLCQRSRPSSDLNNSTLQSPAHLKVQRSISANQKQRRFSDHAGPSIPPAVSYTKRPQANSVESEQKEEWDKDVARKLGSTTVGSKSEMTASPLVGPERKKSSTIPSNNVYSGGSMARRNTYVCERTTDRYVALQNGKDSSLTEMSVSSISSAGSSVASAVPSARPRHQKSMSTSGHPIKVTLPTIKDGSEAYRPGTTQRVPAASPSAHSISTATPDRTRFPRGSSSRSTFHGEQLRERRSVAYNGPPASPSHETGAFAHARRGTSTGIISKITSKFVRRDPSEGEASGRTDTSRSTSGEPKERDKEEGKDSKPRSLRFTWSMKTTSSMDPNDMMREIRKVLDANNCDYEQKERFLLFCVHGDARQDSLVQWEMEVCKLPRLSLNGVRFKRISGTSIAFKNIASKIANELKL

Txk(h) = target: T8, Txk(h) (Homo sapiens, UniProt P42681)
T8 construct: purchased Eurofins (KinaseProfiler)
T8 sequence (P42681 1-527): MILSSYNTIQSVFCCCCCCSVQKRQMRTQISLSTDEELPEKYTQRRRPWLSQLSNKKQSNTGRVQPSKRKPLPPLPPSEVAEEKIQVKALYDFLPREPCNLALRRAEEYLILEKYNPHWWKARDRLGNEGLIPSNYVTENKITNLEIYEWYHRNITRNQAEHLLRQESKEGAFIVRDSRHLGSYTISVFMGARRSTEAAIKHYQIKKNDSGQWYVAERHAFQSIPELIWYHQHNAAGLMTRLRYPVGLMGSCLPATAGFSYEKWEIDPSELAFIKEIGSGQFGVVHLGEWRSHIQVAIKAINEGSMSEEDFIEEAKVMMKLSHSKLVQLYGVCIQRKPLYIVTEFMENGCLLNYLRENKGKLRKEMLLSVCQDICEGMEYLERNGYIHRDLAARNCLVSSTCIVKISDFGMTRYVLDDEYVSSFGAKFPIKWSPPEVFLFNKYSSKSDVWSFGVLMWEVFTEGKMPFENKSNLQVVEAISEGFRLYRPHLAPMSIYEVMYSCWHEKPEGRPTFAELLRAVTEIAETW

ROCK-I(h) = target: T9, ROCK-I(h) (Homo sapiens, UniProt Q13464)
T9 construct: purchased Eurofins (KinaseProfiler)

Met(Y1248C)(h) = target: T10, Met(Y1248C)(h) (Homo sapiens, UniProt P08581, Y1230C)
T10 construct: purchased Eurofins (KinaseProfiler)
T10 sequence (P08581 956-1390 Y1230C limits assumed): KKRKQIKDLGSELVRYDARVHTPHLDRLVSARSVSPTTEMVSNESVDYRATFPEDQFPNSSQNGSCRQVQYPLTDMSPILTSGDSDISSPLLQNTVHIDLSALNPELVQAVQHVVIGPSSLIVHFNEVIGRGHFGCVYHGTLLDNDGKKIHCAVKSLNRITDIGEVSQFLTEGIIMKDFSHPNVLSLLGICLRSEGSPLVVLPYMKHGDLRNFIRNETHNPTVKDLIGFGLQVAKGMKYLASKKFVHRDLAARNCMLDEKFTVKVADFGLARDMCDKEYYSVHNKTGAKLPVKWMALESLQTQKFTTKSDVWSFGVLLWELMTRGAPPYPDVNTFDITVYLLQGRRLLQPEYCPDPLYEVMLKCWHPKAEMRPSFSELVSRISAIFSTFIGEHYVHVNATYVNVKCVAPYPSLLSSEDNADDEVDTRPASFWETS

T1 sequence (P06213 28-1382): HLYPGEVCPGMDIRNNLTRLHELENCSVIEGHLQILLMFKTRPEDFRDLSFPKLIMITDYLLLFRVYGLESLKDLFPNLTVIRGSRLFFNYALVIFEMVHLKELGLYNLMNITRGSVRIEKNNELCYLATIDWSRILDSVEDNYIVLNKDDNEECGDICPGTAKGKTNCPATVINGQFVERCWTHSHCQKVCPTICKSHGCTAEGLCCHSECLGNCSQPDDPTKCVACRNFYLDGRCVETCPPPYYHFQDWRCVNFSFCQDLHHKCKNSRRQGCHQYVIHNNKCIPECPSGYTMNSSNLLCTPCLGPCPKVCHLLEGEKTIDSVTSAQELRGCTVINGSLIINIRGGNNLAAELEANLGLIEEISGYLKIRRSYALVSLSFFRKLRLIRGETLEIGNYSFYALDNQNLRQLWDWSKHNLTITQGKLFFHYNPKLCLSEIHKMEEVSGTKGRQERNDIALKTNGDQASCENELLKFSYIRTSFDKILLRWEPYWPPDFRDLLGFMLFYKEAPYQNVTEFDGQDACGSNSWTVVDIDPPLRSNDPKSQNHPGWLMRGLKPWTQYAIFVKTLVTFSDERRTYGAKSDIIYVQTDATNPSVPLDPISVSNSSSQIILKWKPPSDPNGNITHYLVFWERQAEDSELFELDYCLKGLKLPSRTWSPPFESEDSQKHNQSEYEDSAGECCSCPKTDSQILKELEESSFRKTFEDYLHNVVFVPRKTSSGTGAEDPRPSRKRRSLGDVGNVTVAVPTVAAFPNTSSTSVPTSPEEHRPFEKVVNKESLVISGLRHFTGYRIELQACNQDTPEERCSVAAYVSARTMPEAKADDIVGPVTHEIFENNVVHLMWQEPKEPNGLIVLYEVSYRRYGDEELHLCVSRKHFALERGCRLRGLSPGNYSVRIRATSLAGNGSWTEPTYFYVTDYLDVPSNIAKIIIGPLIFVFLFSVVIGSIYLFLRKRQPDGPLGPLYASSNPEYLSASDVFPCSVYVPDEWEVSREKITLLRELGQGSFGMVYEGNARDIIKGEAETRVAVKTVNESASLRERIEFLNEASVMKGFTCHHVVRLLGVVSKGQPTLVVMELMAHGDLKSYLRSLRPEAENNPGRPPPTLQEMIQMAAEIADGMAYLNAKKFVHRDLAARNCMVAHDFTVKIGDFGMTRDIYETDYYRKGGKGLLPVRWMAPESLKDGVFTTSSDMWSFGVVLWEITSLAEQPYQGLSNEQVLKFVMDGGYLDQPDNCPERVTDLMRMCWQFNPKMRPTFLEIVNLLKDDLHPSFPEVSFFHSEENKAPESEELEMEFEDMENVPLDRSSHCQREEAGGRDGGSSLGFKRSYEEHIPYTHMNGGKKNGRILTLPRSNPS

Compound `COc1cc(OC)c(Cl)c(-c2ccc3c(NC(=O)c4ccc(N5CCNC(C)(C)C5)cc4)n[nH]c3n2)c1Cl` [3D185] has an inhibition at 0.01 µM (IR(h); 10 nM) of 16%, an inhibition at 0.1 µM (IR(h); 100 nM) of 32% and an inhibition at 1 µM (IR(h); 1000 nM) of 94%. It also gave an inhibition at 0.01 µM (CHK1(h); 10 nM) of 3%, an inhibition at 0.1 µM (CHK1(h); 100 nM) of -6% and an inhibition at 1 µM (CHK1(h); 1000 nM) of -3%. The inhibition at 0.01 µM (NEK7(h); 10 nM) was 2%, the inhibition at 0.1 µM (NEK7(h); 100 nM) was 1% and the inhibition at 1 µM (NEK7(h); 1000 nM) was -1%. For the same compound, the inhibition at 0.01 µM (EphA7(h); 10 nM) was 0%, the inhibition at 0.1 µM (EphA7(h); 100 nM) was 8% and the inhibition at 1 µM (EphA7(h); 1000 nM) was 21%. It also gave an inhibition at 0.01 µM (MKK6(h); 10 nM) of 11%, an inhibition at 0.1 µM (MKK6(h); 100 nM) of 0% and an inhibition at 1 µM (MKK6(h); 1000 nM) of 2%. The inhibition at 0.01 µM (TRB2(h); 10 nM) was -3%, the inhibition at 0.1 µM (TRB2(h); 100 nM) was -7% and the inhibition at 1 µM (TRB2(h); 1000 nM) was -4%. The inhibition at 0.01 µM (MARK1(h); 10 nM) was -11%, the inhibition at 0.1 µM (MARK1(h); 100 nM) was -13% and the inhibition at 1 µM (MARK1(h); 1000 nM) was -25%. For the same compound, the inhibition at 0.01 µM (Txk(h); 10 nM) was 18%, the inhibition at 0.1 µM (Txk(h); 100 nM) was 27% and the inhibition at 1 µM (Txk(h); 1000 nM) was 49%. For the same compound, the inhibition at 0.01 µM (ROCK-I(h); 10 nM) was -2%, the inhibition at 0.1 µM (ROCK-I(h); 100 nM) was -12% and the inhibition at 1 µM (ROCK-I(h); 1000 nM) was -3%. It also gave an inhibition at 0.01 µM (Met(Y1248C)(h); 10 nM) of -9%, an inhibition at 0.1 µM (Met(Y1248C)(h); 100 nM) of -2% and an inhibition at 1 µM (Met(Y1248C)(h); 1000 nM) of 5%.
